Results on ten compounds are retold here after paper PMC11537199 (RSC Advances, 2024).

Several values for one entry are separate records, joined by “and”; a condition that tells them apart may be missing. Equal entries are not always repeated. Where two headings read alike, the source gives them in different places.

For assay [1], the system named is picornavirus and norovirus M^pros (PV, HRV, EV71, NV). It counts as biochemical, poliovirus, human rhinovirus, enterovirus A71. Conditions: cross-test against PV, EV71 and NV M^pro, 500 nM enzyme, Bis-Tris pH 7.6, 37 °C.
In a further assay the target is HRV M^pro (Human rhinovirus 14, UniProt P03303). It counts as biochemical. Conditions: 500 nM enzyme, substrate 6-850 μM; for vmax: Fig. S29 Michaelis-Menten fit; for vmax / catalytic efficiency (kcat/KM): Bis-Tris pH 7.6, 37 °C; for Km: Table 7, 20 mM Bis-Tris pH 7.6, 1 mM DTT, 0.02% Tween-20, 37 °C, read 60 min; for catalytic efficiency (kcat/KM): Table 8.
HRV M^pro, sequence (P03303 1538-1719 limits assumed): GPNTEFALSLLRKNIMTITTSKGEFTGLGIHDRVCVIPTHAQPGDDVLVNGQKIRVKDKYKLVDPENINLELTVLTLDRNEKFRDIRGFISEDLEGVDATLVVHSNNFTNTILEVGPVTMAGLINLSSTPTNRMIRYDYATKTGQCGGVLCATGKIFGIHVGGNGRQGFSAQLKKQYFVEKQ
The test system of assay [2] is coronaviral M^pros (SARS-CoV-2, FIPV, PEDV, EqCoV). It counts as biochemical.
In the next assay the test system is PEDV M^pro. Type of assay: biochemical, porcine epidemic diarrhea virus (PEDV). The following applies: for K M / Km / vmax: pH 7.6.
In a further assay the test system is EqCoV M^pro. Type of assay: biochemical, equine coronavirus (EqCoV). The following applies: pH 7.6.
For assay [3], the system named is coronavirus M^pros (SARS-CoV-2, FIPV, PEDV, EqCoV). Type of assay: biochemical.
Assay [4] concerns the target T1, SARS-CoV-2 M^pro (Severe acute respiratory syndrome coronavirus 2, UniProt P0DTD1).
The next assay concerns the target NV M^pro (Norovirus, UniProt Q83883). Type of assay: biochemical. Conditions: 500 nM enzyme, substrate 6-850 μM; for catalytic efficiency (kcat/KM): Table 8.
A further assay has as its target Polio M^pro (Poliovirus type 1, UniProt P03300). Conditions: pH 7.6.
A further assay deals with EV71 M^pro (Human enterovirus 71, UniProt Q66478). It counts as biochemical, enterovirus A71 (EV71). The following applies: 500 nM enzyme, substrate 6-850 μM; for catalytic efficiency (kcat/KM): Table 8.
EV71 M^pro, sequence (Q66478 1549-1731 limits assumed): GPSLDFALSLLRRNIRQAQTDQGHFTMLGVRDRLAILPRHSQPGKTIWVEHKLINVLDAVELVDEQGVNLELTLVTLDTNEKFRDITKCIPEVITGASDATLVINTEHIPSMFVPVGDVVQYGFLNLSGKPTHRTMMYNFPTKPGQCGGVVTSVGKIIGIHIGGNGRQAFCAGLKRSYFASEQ
In the next assay the target is FIPV M^pro (Feline coronavirus, UniProt Q98VG9). Type of assay: biochemical, feline infectious peritonitis virus (FIPV). The following applies: pH 7.6.
FIPV M^pro, sequence (Q98VG9 2904-3205 limits assumed): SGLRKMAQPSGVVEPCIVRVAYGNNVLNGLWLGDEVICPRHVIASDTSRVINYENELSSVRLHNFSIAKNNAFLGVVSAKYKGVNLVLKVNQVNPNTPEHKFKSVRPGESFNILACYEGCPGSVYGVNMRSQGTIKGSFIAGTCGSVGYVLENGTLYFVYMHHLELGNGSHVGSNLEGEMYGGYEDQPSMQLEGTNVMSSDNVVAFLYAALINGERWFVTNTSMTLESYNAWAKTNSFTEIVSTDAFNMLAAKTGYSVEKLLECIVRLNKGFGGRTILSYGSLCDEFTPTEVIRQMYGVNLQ
In assay [5] the target is T1, SARS-CoV-2 M^pro. The following applies: pH 7.6.
The mark [6] stands for this setting: Fig. S32 Michaelis-Menten fit, Bis-Tris pH 7.6, 37 °C.
The mark [7] stands for this setting: Table 7, 20 mM Bis-Tris pH 7.6, 1 mM DTT, 0.02% Tween-20, 37 °C, read 60 min.
Setting [8] is: Fig. S31 Michaelis-Menten fit, Bis-Tris pH 7.6, 37 °C.

Polio M^pro, sequence (P03300 1566-1748 limits assumed): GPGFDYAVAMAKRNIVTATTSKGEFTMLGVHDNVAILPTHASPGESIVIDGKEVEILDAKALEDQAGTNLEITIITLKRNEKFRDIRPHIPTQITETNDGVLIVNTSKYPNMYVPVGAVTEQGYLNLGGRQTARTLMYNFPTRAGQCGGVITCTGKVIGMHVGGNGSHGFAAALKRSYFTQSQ
NV M^pro, sequence (Q83883 1101-1281 limits assumed): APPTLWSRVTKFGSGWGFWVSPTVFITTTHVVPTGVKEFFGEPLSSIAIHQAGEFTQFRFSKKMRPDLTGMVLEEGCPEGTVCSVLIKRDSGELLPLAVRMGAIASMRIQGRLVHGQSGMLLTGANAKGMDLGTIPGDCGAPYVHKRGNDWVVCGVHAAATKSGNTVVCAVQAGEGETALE

With 2-Abz-ETLFQ↓GPVY^(NO2)R [HRFRET], the “recognition of substrate by picornaviral and noroviral main proteases” value in assay [1] is given as “only specific to rhinovirus M^pro”. At HRV M^pro, the vmax is 0.5348 ± 0.08 µM/s, the Km was determined as 340 ± 49 µM and the “catalytic efficiency (kcat/KM)” value came to 3000 ± 285 M⁻¹ s⁻¹.
As to `C[S+](C)[O-]` [DMSO, dimethyl sulfoxide], the “decrease of enzyme activity” value in assay [2] is recorded as 42–60%.
In the case of “2-Abz-NSTLQ↓SGY^(NO2)R [PEDV 2, truncated version of the PEDV FRET substrate]”, in the assay with PEDV M^pro, the k cat came out at 2.6 ± 0.2 s⁻¹, the “K M” value stood at 63 ± 11 µM, the Km was 63 ± 11 µM and the vmax was found to be 0.266 ± 0.02 µM/s. The vmax with EqCoV M^pro came to 0.4516 µM/s.
Consider “2-Abz-DFHLQ↓GPY^(NO2)R [NPFRET, shorter, truncated consensus substrate proposed in the literature, reference compound]”, for which, in assay [1], the “recognition of substrate by picornaviral and noroviral main proteases” value is given as “lack of binding”.
In the case of Tween-20, the “effect on catalytic activity” value in [2] is on record as “do not significantly reduce catalytic activity”.
Turning to 2-Abz-STLAAGY^(NO2)R [(−) FRET], the “recognition of substrate by coronavirus M^pros” value in [3] was “None of the investigated M^pros recognize”. For the same compound, on SARS-CoV-2 M^pro [4], the “cleavage by SARS-CoV-2 M^pro (LCMS analysis of cleavage products)” value is reported as “no cleavage”.
On to 2-Abz-EALFQ↓GPPKY^(NO2)R [EV71FRET], for which the Km at NV M^pro (setting [6]) is 622 µM; on NV M^pro (setting [7]) it was 620 ± 153 µM; on Polio M^pro it was 1140 µM and 1110 µM; at EV71 M^pro (setting [8]) it was 1640 µM; on EV71 M^pro (setting [7]), 1640 ± 261 µM; at HRV M^pro it was 480 ± 80 µM. For the same compound, the vmax on NV M^pro (setting [6]) came to 1.410 ± 0.16 µM/s; at Polio M^pro it was 1.366 ± 0.30 µM/s; at EV71 M^pro (setting [8]), 1.029 ± 0.13 µM/s; at HRV M^pro, 0.7709 ± 0.08 µM/s. Also, the “catalytic efficiency (kcat/KM)” value worked out at 4500 ± 515 M⁻¹ s⁻¹ at NV M^pro (Bis-Tris pH 7.6, 37 °C); 2700 ± 315 M⁻¹ s⁻¹ at Polio M^pro; 1300 ± 138 M⁻¹ s⁻¹ on EV71 M^pro (Bis-Tris pH 7.6, 37 °C); 3200 ± 405 M⁻¹ s⁻¹ at HRV M^pro. Besides, the “recognition of substrate by picornaviral and noroviral main proteases” value in assay [1] was “somewhat more promiscuous”.
Take 2-Abz-EFQLQ↓GKMYDY^(NO2)R [NVFRET]: the results for the vmax at NV M^pro (setting [6]), on Polio M^pro and on EV71 M^pro (setting [8]) were 0.4163 ± 0.08 µM/s, 4.136 ± 1.36 µM/s and 1.914 ± 0.29 µM/s, respectively. Further, the results for the Km at NV M^pro (setting [7]), at EV71 M^pro (setting [8]) and on EV71 M^pro (setting [7]) were 613 ± 188 µM, 1100 µM and 1100 ± 201 µM, respectively. In addition, the “catalytic efficiency (kcat/KM)” value at NV M^pro (Bis-Tris pH 7.6, 37 °C) worked out at 1300 ± 167 M⁻¹ s⁻¹; at EV71 M^pro (Bis-Tris pH 7.6, 37 °C) it was 3400 ± 455 M⁻¹ s⁻¹.
On to 2-Abz-VVTLQ↓SGY^(NO2)R [Blanchard-VV], for which the Km in the assay on PEDV M^pro came to 85 ± 10 µM; at FIPV M^pro it was 85 ± 15 µM; on SARS-CoV-2 M^pro [5] it was 64 ± 10 µM; in the assay with EqCoV M^pro it was 371 ± 70 µM. The vmax in the assay with PEDV M^pro stood at 0.360 ± 0.04 µM/s; at FIPV M^pro, 0.3231 ± 0.04 µM/s; on SARS-CoV-2 M^pro [5], 0.2927 ± 0.02 µM/s.
As for 2-Abz-YNSTLQ↓SGY^(NO2)R [PEDV 1], in the assay with PEDV M^pro, the k cat came out at 3.3 ± 0.3 s⁻¹, the “K M” value was 192 ± 26 µM, the Km worked out at 192 ± 26 µM and the vmax came out at 0.330 ± 0.02 µM/s. In the assay with EqCoV M^pro, this compound came in with a vmax of 0.4075 µM/s.

A word on the Km: it is the concentration of substrate that gives half-maximal velocity.
